Each block holds one molecule with its values, some of them ahead of it.
Experiments:
[1] = Dynamic Vapor Sorption (DVS) moisture sorption/desorption isotherm at 25° C.; format: physicochemical
Procedure: Moisture sorption/desorption isotherms were recorded on a SPS11-10μ from Projekt Messtechnik (Ulm, Germany). One cycle was run at 25° C., in which the sample was first stepwise decreased to 0% RH and then the relative humidity was stepwise increased from 0 to 95% and the weight of the sample was measured. Typical total measurement times for both cycles were about 20 to 30 hours.
The measurement was performed as disclosed in Example 7 with (R)-3-[6-amino-pyridin-3-yl]-2-(1-cyclohexyl-1H-imidazol-4-yl)-propionic acid (free acid, amorphous) and the received data are shown in the following table 2.

[2] = Chemical stability under elevated temperature and humidity; format: physicochemical; details: result in words

desorption of water ([1]; DVS 25° C., at 0.2% RH, phase transition monohydrate to anhydrate): −4.4%
Compound: Nc1ccc(C[C@@H](C(=O)[O-])c2cn(C3CCCCC3)cn2)cn1.[Na+] [(R)-3-[6-amino-pyridin-3-yl]-2-(1-cyclohexyl-1H-imidazol-4-yl)-propionic acid sodium salt monohydrate]

hygroscopicity (absorption or adsorption of water molecules from the surrounding environment) ([1]; result in words): hygroscopic
Compound: Nc1ccc(CC(C(=O)O)c2cn(C3CCCCC3)cn2)cn1 (stereo not shown) [3-[6-amino-pyridin-3-yl]-2-(1-cyclohexyl-1H-imidazol-4-yl)-propionic acid, reference compound]

chemical stability [2]: chemically not stable
enantiomeric purity on storage [2]: reduced within a short time
Compound: Nc1ccc(C[C@@H](C(=O)O)c2cn(C3CCCCC3)cn2)cn1 [(R)-3-[6-amino-pyridin-3-yl]-2-(1-cyclohexyl-1H-imidazol-4-yl)-propionic acid]

— patent US9145385B2, “Crystalline salts of R)-3-[6-amino-pyridin-3-yl]-2-(1-cyclohexy1-1H-imidazol-4-yl)-propionic acid” (Sanofi, priority 2011, dated 2015)
